Assay results from patent US20070020183A1, “Perfluoroalkyl-containing complexes, process for their production as well as their use” (priority 2005, published 2007).

Legend:
[1] = in vivo; cited from earlier work
[2] = system: inflammatory muscle lesions and necrotic areas; test: MRT visualization of inflammatory lesions and necrotic areas in rats; format: in vivo; details: i.v. 50 μmol of Gd/kg, T1-weighted turbo-spin-echo 1.5 T
Protocol: By way of example, the pictures of FIG. 3 show MR images of inflammatory muscle lesions as well as necrotic areas at different points in time after intravenous administration of 50 μmol of Gd/kg of body weight of gadolinium complex XIV (title substance of Example 4g) in rats. The inflammation/necrosis was induced by intravenous administration of Rose Bengal (20 mg/kg; 24 hours before the administration of contrast medium) and subsequent 20-minute irradiation with a xenon lamp.

| Compound | LD50 [1] | MR signal in the central necrosis ([2]; 24 hours p.i.) | MR signal in inflammatorily altered tissue ([2]; up to 60 minutes p.i.) |
| --- | --- | --- | --- |
| Mn-TPPS | approximately 0.5 mmol/kg |  |  |
| CC(C(=O)NCC(=O)NCCCC[C@H](NC(=O)CO[C@H]1O[C@H](CO)[C@@H](O)[C@H](O)[C@@H]1O)C(=O)NCCCC(F)(F)C(F)(F)C(F)(F)C(F)(F)C(F)(F)C(F)(F)C(F)(C(F)(F)F)C(F)(F)F)N1CCN(CC(=O)[O-])CCN(CC(=O)[O-])CCN(CC(=O)[O-])CC1.[Gd+3] (stereo partly drawn) [Gadolinium complex XIV, Gadolinium complex of 6-N-[1,4,7-tris-(carboxylatomethyl)-1,4,7,10-tetraazacyclododecane-10-N-(pentanoyl-3-aza-4-oxo-5-methyl-5-yl)]-2-N-(1-O-α-d-carbonylmethylmannopyranose)-L-lysine-[(1H,1H,2H,2H-perfluoro-9-methyldecyl)-methyl]-amide] |  | delayed signal rise | strong signal rise |
